Laboratory results taken from ChEMBL document CHEMBL4342428, “d-Limonene Ameliorates Myocardial Infarction Injury by Reducing Reactive Oxygen Species and Cell Apoptosis in a Murine Model” (2019).
Active and inactive are the calls of the source. The rule behind the calls is not given here.

Key:
Mus musculus [1] = assay: Cardioprotective activity in Swiss mouse model of isoproterenol-induced myocardial Infarction assessed as abnormal ST-segment at 1200 mg/kg administered 30 mins post isoproterenol stimulation and measured for 5 mins by electrocardiographic analysis (reference value: 70%); assay type: functional
Mus musculus [2] = assay: Cardioprotective activity against isoproterenol-induced apoptosis in Swiss mouse model of myocardial infarction assessed as reduction in Bax/Bcl2 expression ratio in at 1200 mg/kg administered 30 mins post isoproterenol stimulation by Western blot analysis; assay type: functional, organism-based
Mus musculus [3] = assay: Cardioprotective activity in Swiss mouse model of myocardial infarction assessed as reversal of isoproterenol-induced increase in heart rate at 1200 mg/kg administered 30 mins post isoproterenol stimulation and measured for 5 mins by electrocardiographic analysis; assay type: functional, organism-based
Mus musculus [4] = assay: Cardioprotective activity in Swiss mouse model of isoproterenol-induced myocardial infarction assessed as reduction in lactate dehydrogenase at 1200 mg/kg administered 30 mins post isoproterenol stimulation; assay type: functional, organism-based
Mus musculus [5] = assay: Cardioprotective activity in Swiss mouse model of isoproterenol-induced myocardial infarction assessed as reduction in myocardial infarct size at 1200 mg/kg administered 30 mins post isoproterenol stimulation by TTC staining based assay; assay type: functional, organism-based
Mus musculus [6] = assay: Cardioprotective activity against isoproterenol-induced apoptosis in Swiss mouse model of myocardial infarction assessed as reduction in Bax expression at 1200 mg/kg administered 30 mins post isoproterenol stimulation by Western blot analysis; assay type: functional, organism-based
Mus musculus [7] = assay: Cardioprotective activity against isoproterenol-induced oxidative stress in Swiss mouse model of myocardial infarction assessed as reduction in ROS generation at 1200 mg/kg administered 30 mins post isoproterenol stimulation by DHE staining based fluorescence assay; assay type: functional, organism-based
Mus musculus [8] = assay: Cardioprotective activity in Swiss mouse model of myocardial infarction assessed as reversal of isoproterenol-induced increase in QTc interval at 1200 mg/kg administered 30 mins post isoproterenol stimulation and measured for 5 mins by electrocardiographic analysis; assay type: functional, organism-based
Mus musculus [9] = assay: Cardioprotective activity against isoproterenol-induced apoptosis in Swiss mouse model of myocardial infarction assessed as increase in Bcl2 expression at 1200 mg/kg administered 30 mins post isoproterenol stimulation by Western blot analysis; assay type: functional, organism-based
Mus musculus [10] = assay: Cardioprotective activity in Swiss mouse model of isoproterenol-induced myocardial infarction assessed as reduction in creatine kinase myocardial band at 1200 mg/kg administered 30 mins post isoproterenol stimulation; assay type: functional, organism-based
Mus musculus [11] = assay: Cardioprotective activity in Swiss mouse model of isoproterenol-induced myocardial Infarction assessed as abnormal ST-segment at 10 umol, ip administered 30 mins post isoproterenol stimulation and measured for 5 mins by electrocardiographic analysis (reference value: 70%); assay type: functional
Mus musculus [12] = assay: Cardioprotective activity against isoproterenol-induced oxidative stress in Swiss mouse model of myocardial infarction assessed as reduction in sulfhydryl level in cardiac tissue homogenate at 10 umol, ip administered 30 mins post isoproterenol stimulation by spectrophotometric method; assay type: functional, organism-based
Mus musculus [13] = assay: Cardioprotective activity in Swiss mouse model of myocardial infarction assessed as protection against isoproterenol-induced vacuolation in myocardium at 10 umol, ip administered 30 mins post isoproterenol stimulation by H and E staining based histopathological analysis; assay type: functional, organism-based
Mus musculus [14] = assay: Cardioprotective activity against isoproterenol-induced oxidative stress in Swiss mouse model of myocardial infarction assessed as reduction in ROS generation at 10 umol, ip administered 30 mins post isoproterenol stimulation by DHE staining based fluorescence assay; assay type: functional, organism-based
Mus musculus [15] = assay: Cardioprotective activity against isoproterenol-induced apoptosis in Swiss mouse model of myocardial infarction assessed as reduction in Bax expression at 10 umol, ip administered 30 mins post isoproterenol stimulation by Western blot analysis; assay type: functional, organism-based
Mus musculus [16] = assay: Cardioprotective activity in Swiss mouse model of myocardial infarction assessed as protection against isoproterenol-induced capillary congestion in myocardium at 10 umol, ip administered 30 mins post isoproterenol stimulation by H and E staining based histopathological analysis; assay type: functional, organism-based
Mus musculus [17] = assay: Cardioprotective activity in Swiss mouse model of isoproterenol-induced myocardial infarction assessed as reduction in myocardial infarct size at 10 umol, ip administered 30 mins post isoproterenol stimulation by TTC staining based assay; assay type: functional, organism-based
Mus musculus [18] = assay: Cardioprotective activity in Swiss mouse model of myocardial infarction assessed as protection against isoproterenol-induced wide spacing in myocardium at 10 umol, ip administered 30 mins post isoproterenol stimulation by H and E staining based histopathological analysis; assay type: functional, organism-based
Mus musculus [19] = assay: Cardioprotective activity against isoproterenol-induced oxidative stress in Swiss mouse model of myocardial infarction assessed as reduction in caspase-3 expression at 10 umol, ip administered 30 mins post isoproterenol stimulation by Western blot analysis; assay type: functional, organism-based
Mus musculus [20] = assay: Cardioprotective activity in Swiss mouse model of isoproterenol-induced myocardial infarction assessed as reduction in inflammatory cell infiltration in myocardium at 10 umol, ip administered 30 mins post isoproterenol stimulation by H and E staining based histopathological analysis; assay type: functional, organism-based
Mus musculus [21] = assay: Cardioprotective activity in Swiss mouse model of isoproterenol-induced myocardial infarction assessed as reduction in creatine kinase myocardial band at 10 umol, ip administered 30 mins post isoproterenol stimulation; assay type: functional, organism-based
Mus musculus [22] = assay: Cardioprotective activity in Swiss mouse model of myocardial infarction assessed as protection against isoproterenol-induced degeneration in myocardium at 10 umol, ip administered 30 mins post isoproterenol stimulation by H and E staining based histopathological analysis; assay type: functional, organism-based
Mus musculus [23] = assay: Cardioprotective activity against isoproterenol-induced apoptosis in Swiss mouse model of myocardial infarction assessed as change in Bcl2 expression at 10 umol, ip administered 30 mins post isoproterenol stimulation by Western blot analysis; assay type: functional, organism-based
Mus musculus [24] = assay: Cardioprotective activity against isoproterenol-induced oxidative stress in Swiss mouse model of myocardial infarction assessed as increase in catalase activity at 10 umol, ip administered 30 mins post isoproterenol stimulation by spectrophotometric method; assay type: functional, organism-based
Mus musculus [25] = assay: Cardioprotective activity in Swiss mouse model of myocardial infarction assessed as protection against isoproterenol-induced discontinuity in myocardium at 10 umol, ip administered 30 mins post isoproterenol stimulation by H and E staining based histopathological analysis; assay type: functional, organism-based
Mus musculus [26] = assay: Cardioprotective activity in Swiss mouse model of myocardial infarction assessed as protection against isoproterenol-induced mononuclear cell infiltration in myocardium at 10 umol, ip administered 30 mins post isoproterenol stimulation by H and E staining based histopathological analysis; assay type: functional, organism-based
Mus musculus [27] = assay: Cardioprotective activity in Swiss mouse model of isoproterenol-induced myocardial infarction assessed as reduction in lactate dehydrogenase at 10 umol, ip administered 30 mins post isoproterenol stimulation; assay type: functional, organism-based
Mus musculus [28] = assay: Cardioprotective activity in Swiss mouse model of myocardial infarction assessed as reversal of isoproterenol-induced increase in QTc interval at 10 umol, ip administered 30 mins post isoproterenol stimulation and measured for 5 mins by electrocardiographic analysis; assay type: functional, organism-based
Mus musculus [29] = assay: Cardioprotective activity against isoproterenol-induced oxidative stress in Swiss mouse model of myocardial infarction assessed as reduction in protein carbonylation at 10 umol, ip administered 30 mins post isoproterenol stimulation by spectrophotometric method; assay type: functional, organism-based
Mus musculus [30] = assay: Cardioprotective activity against isoproterenol-induced apoptosis in Swiss mouse model of myocardial infarction assessed as reduction in Bax/Bcl2 expression ratio in at 10 umol, ip administered 30 mins post isoproterenol stimulation by Western blot analysis; assay type: functional, organism-based
Mus musculus [31] = assay: Cardioprotective activity against isoproterenol-induced oxidative stress in Swiss mouse model of myocardial infarction assessed as change in ferric ion reducing activity at 10 umol, ip administered 30 mins post isoproterenol stimulation by FRAP assay; assay type: functional, organism-based
Mus musculus [32] = assay: Cardioprotective activity against isoproterenol-induced oxidative stress in Swiss mouse model of myocardial infarction assessed as increase in GPx activity at 10 umol, ip administered 30 mins post isoproterenol stimulation by spectrophotometric method; assay type: functional, organism-based
Mus musculus [33] = assay: Cardioprotective activity in Swiss mouse model of myocardial infarction assessed as reversal of isoproterenol-induced increase in heart rate at 10 umol, ip administered 30 mins post isoproterenol stimulation and measured for 5 mins by electrocardiographic analysis; assay type: functional, organism-based
Mus musculus [34] = assay: Cardioprotective activity against isoproterenol-induced oxidative stress in Swiss mouse model of myocardial infarction assessed as reduction in lipid peroxidation at 10 umol, ip administered 30 mins post isoproterenol stimulation by TBARS method; assay type: functional, organism-based
Mus musculus [35] = assay: Cardioprotective activity against isoproterenol-induced oxidative stress in Swiss mouse model of myocardial infarction assessed as increase in SOD activity at 10 umol, ip administered 30 mins post isoproterenol stimulation by spectrophotometric method; assay type: functional, organism-based

For CC(=O)N[C@@H](CS)C(=O)O [ACETYLCYSTEINE], the Activity (Mus musculus [1]) was 20%, the Activity (Mus musculus [2]) was “Active” and the Activity (Mus musculus [3]) was “Active”. For the same compound, the Activity (Mus musculus [4]) was “Active”, the Activity (Mus musculus [5]) was “Active” and the Activity (Mus musculus [6]) was “Active”. The Activity (Mus musculus [7]) was “Active”, the Activity (Mus musculus [8]) was “Active” and the Activity (Mus musculus [9]) was “Active”. The Activity (Mus musculus [10]) was “Active”.
With C=C(C)[C@H]1CC=C(C)CC1 [D-LIMONENE] the Activity (Mus musculus [11]) was 30%, the Activity (Mus musculus [12]) was “Active” and the Activity (Mus musculus [13]) was “Active”. For the same compound, the Activity (Mus musculus [14]) was “Active”, the Activity (Mus musculus [15]) was “Active” and the Activity (Mus musculus [16]) was “Active”. For the same compound, the Activity (Mus musculus [17]) was “Active”, the Activity (Mus musculus [18]) was “Active” and the Activity (Mus musculus [19]) was “Active”. The Activity (Mus musculus [20]) was “Active”, the Activity (Mus musculus [21]) was “Active” and the Activity (Mus musculus [22]) was “Active”. The Activity (Mus musculus [23]) was “inactive”, the Activity (Mus musculus [24]) was “inactive” and the Activity (Mus musculus [25]) was “Active”. For the same compound, the Activity (Mus musculus [26]) was “Active”, the Activity (Mus musculus [27]) was “Active” and the Activity (Mus musculus [28]) was “Active”. The Activity (Mus musculus [29]) was “Active”, the Activity (Mus musculus [30]) was “Active” and the Activity (Mus musculus [31]) was “inactive”. For the same compound, the Activity (Mus musculus [32]) was “Active”, the Activity (Mus musculus [33]) was “Active” and the Activity (Mus musculus [34]) was “Active”. For the same compound, the Activity (Mus musculus [35]) was “Active”.
